Source: ChEMBL document CHEMBL1201862, “PubChem BioAssay data set” (2004)
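A five-concentration, 48-hour dose response in 96-well plates underlies each endpoint, interpolated linearly between surrounding concentrations. GI50 marks 50% less growth.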 Calls of active or inactive are those of the source. Rule as the data show it: active = GI50 up to about 1.1 µM and inactive = higher.

Columns and labels:
Assay in all cases: growth of human tumour cells (NCI), 48 h
HL-60 = tested on: HL-60
DLD-1 = tested on: DLD-1
786-0 = tested on: 786-0
NCI-H23 = tested on: NCI-H23
HT-29 = tested on: HT-29
SK-MEL-2 = tested on: SK-MEL-2
OVCAR-3 = tested on: OVCAR-3
UO-31 = tested on: UO-31
SN12C = tested on: SN12C
OVCAR-4 = tested on: OVCAR-4
HCC 2998 = tested on: HCC 2998
SK-MEL-28 = tested on: SK-MEL-28
SF-268 = tested on: SF-268
OVCAR-5 = tested on: OVCAR-5
SF-295 = tested on: SF-295
KM12 = tested on: KM12
HOP-92 = tested on: HOP-92
SNB-75 = tested on: SNB-75
HOP-62 = tested on: HOP-62
RXF 393 = tested on: RXF 393
RPMI-8226 = tested on: RPMI-8226
LOX IMVI = tested on: LOX IMVI
DMS-114 = tested on: DMS-114
DMS-273 = tested on: DMS-273
Malme-3M = tested on: Malme-3M
CCRF-CEM = tested on: CCRF-CEM
MOLT-4 = tested on: MOLT-4
K562 = tested on: K562
RXF 631 = tested on: RXF 631
CAKI-1 = tested on: CAKI-1
NCI-H226 = tested on: NCI-H226
M14 = tested on: M14
A498 = tested on: A498
ACHN = tested on: ACHN
XF498 = tested on: XF498
UACC-257 = tested on: UACC-257
IGROV-1 = tested on: IGROV-1
SNB-19 = tested on: SNB-19
COLO 205 = tested on: COLO 205
HCT-116 = tested on: HCT-116
LXFL 529 = tested on: LXFL 529
U-251 = tested on: U-251
UACC-62 = tested on: UACC-62
NCI-H460 = tested on: NCI-H460
HCT-15 = tested on: HCT-15
SR = tested on: SR
SK-OV-3 = tested on: SK-OV-3
NCI-H522 = tested on: NCI-H522
SF-539 = tested on: SF-539
KM-20L2 = tested on: KM-20L2
M19-MEL = tested on: M19-MEL
SW-620 = tested on: SW-620
TK-10 = tested on: TK-10
SK-MEL-5 = tested on: SK-MEL-5
HOP-18 = tested on: HOP-18
A549 = tested on: A549
OVCAR-8 = tested on: OVCAR-8
EKVX = tested on: EKVX
SNB-78 = tested on: SNB-78

Measured: GI50

COc1ccc2oc(-c3ccncc3)cc(=O)c2c1
inactive: HL-60 > 100 µM | DLD-1 > 100 µM | 786-0 > 100 µM | NCI-H23 > 100 µM | HT-29 > 100 µM | SK-MEL-2 > 100 µM | OVCAR-3 > 100 µM | UO-31 > 100 µM | SN12C 38.7 µM | OVCAR-4 > 100 µM | HCC 2998 > 100 µM | SK-MEL-28 > 100 µM | SF-268 67.6 µM | OVCAR-5 > 100 µM | SF-295 > 100 µM | KM12 84.5 µM | HOP-92 37.5 µM | SNB-75 > 100 µM | HOP-62 > 100 µM | RXF 393 > 100 µM | RPMI-8226 > 100 µM | LOX IMVI 57.5 µM | DMS-114 > 100 µM | DMS-273 62.8 µM | Malme-3M 39.8 µM | CCRF-CEM 81.1 µM | MOLT-4 25.2 µM | K562 > 100 µM | RXF 631 40.5 µM | CAKI-1 33.2 µM | NCI-H226 > 100 µM | M14 > 100 µM | A498 > 100 µM | ACHN > 100 µM | XF498 > 100 µM | UACC-257 > 100 µM | IGROV-1 82 µM | SNB-19 > 100 µM | COLO 205 > 100 µM | HCT-116 > 100 µM | LXFL 529 > 100 µM | U-251 73.3 µM | UACC-62 65.2 µM | NCI-H460 > 100 µM
> 100 µM: HCT-15

C[S+]=c1sc2ccccc2s1
> 100 µM: HCT-15
inactive: HL-60 > 100 µM | DLD-1 > 100 µM | 786-0 > 100 µM | HT-29 > 100 µM | SK-MEL-2 > 100 µM | SR > 100 µM | UO-31 > 100 µM | SN12C > 100 µM | OVCAR-4 > 100 µM | HCC 2998 > 100 µM | SF-268 > 100 µM | SK-OV-3 > 100 µM | OVCAR-5 > 100 µM | NCI-H522 > 100 µM | SF-295 > 100 µM | KM12 > 100 µM | SF-539 > 100 µM | HOP-92 > 100 µM | SNB-75 > 100 µM | HOP-62 > 100 µM | RXF 393 > 100 µM | RPMI-8226 > 100 µM | KM-20L2 > 100 µM | LOX IMVI > 100 µM | DMS-114 > 100 µM | DMS-273 > 100 µM | Malme-3M > 100 µM | CCRF-CEM > 100 µM | MOLT-4 > 100 µM | K562 > 100 µM | M19-MEL > 100 µM | RXF 631 > 100 µM | CAKI-1 > 100 µM | NCI-H226 > 100 µM | M14 > 100 µM | A498 > 100 µM | SW-620 > 100 µM | ACHN > 100 µM | UACC-257 > 100 µM | IGROV-1 > 100 µM | TK-10 > 100 µM | SK-MEL-5 > 100 µM | SNB-19 > 100 µM | HOP-18 > 100 µM | A549 > 100 µM | COLO 205 > 100 µM | HCT-116 > 100 µM | LXFL 529 > 100 µM | OVCAR-8 > 100 µM | U-251 > 100 µM | UACC-62 > 100 µM | NCI-H460 > 100 µM

Nc1cccc(C(=O)/C=C/c2ccccc2O)c1
inactive: HL-60 20.7 µM | DLD-1 > 100 µM | 786-0 33.1 µM | NCI-H23 > 100 µM | HT-29 68.2 µM | SK-MEL-2 > 100 µM | SR 44.7 µM | OVCAR-3 > 100 µM | UO-31 > 100 µM | SN12C > 100 µM | HCC 2998 > 100 µM | EKVX > 100 µM | SK-MEL-28 > 100 µM | SF-268 > 100 µM | SK-OV-3 > 100 µM | OVCAR-5 > 100 µM | NCI-H522 59.4 µM | SF-295 > 100 µM | KM12 > 100 µM | SF-539 > 100 µM | HOP-92 > 100 µM | SNB-75 13.2 µM | HOP-62 > 100 µM | RXF 393 85.5 µM | RPMI-8226 16.2 µM | KM-20L2 > 100 µM | LOX IMVI 31.4 µM | DMS-114 46.7 µM | DMS-273 > 100 µM | Malme-3M > 100 µM | CCRF-CEM 27.5 µM | MOLT-4 > 100 µM | K562 32.9 µM | M19-MEL > 100 µM | CAKI-1 > 100 µM | NCI-H226 > 100 µM | M14 > 100 µM | SNB-78 > 100 µM | A498 > 100 µM | SW-620 12.2 µM | ACHN > 100 µM | XF498 > 100 µM | UACC-257 > 100 µM | IGROV-1 > 100 µM | TK-10 > 100 µM | SK-MEL-5 > 100 µM | SNB-19 > 100 µM | HOP-18 84.3 µM | A549 > 100 µM | COLO 205 > 100 µM | HCT-116 > 100 µM | LXFL 529 71.4 µM | OVCAR-8 > 100 µM | U-251 98.6 µM | UACC-62 > 100 µM | NCI-H460 > 100 µM
> 100 µM: HCT-15

CN(C(=O)C12C3C4C1C1C2C3C41C(=O)N(C)C(C)(C)C)C(C)(C)C (stereo unspecified)
> 50 µM: HCT-15
inactive: HL-60 > 50 µM | 786-0 > 50 µM | HT-29 > 50 µM | SR > 50 µM | OVCAR-3 > 50 µM | UO-31 > 50 µM | SN12C > 50 µM | HCC 2998 > 50 µM | EKVX > 50 µM | SK-MEL-28 > 50 µM | SF-268 > 50 µM | SK-OV-3 > 50 µM | NCI-H522 > 50 µM | SF-295 > 50 µM | SF-539 > 50 µM | HOP-92 > 50 µM | SNB-75 21.6 µM | HOP-62 > 50 µM | KM-20L2 > 50 µM | DMS-114 > 50 µM | DMS-273 > 50 µM | Malme-3M > 50 µM | CCRF-CEM > 50 µM | MOLT-4 > 50 µM | K562 > 50 µM | M19-MEL > 50 µM | RXF 631 > 50 µM | CAKI-1 > 50 µM | M14 > 50 µM | SNB-78 > 50 µM | A498 > 50 µM | SW-620 > 50 µM | ACHN > 50 µM | XF498 > 50 µM | IGROV-1 > 50 µM | SK-MEL-5 > 50 µM | SNB-19 > 50 µM | A549 > 50 µM | COLO 205 > 50 µM | HCT-116 > 50 µM | LXFL 529 > 50 µM | OVCAR-8 > 50 µM | U-251 > 50 µM | UACC-62 > 50 µM

CC1CC(=O)Nc2ccccc2N1C(=O)CN1CCC(CCCCN(C)C)CC1 (stereo unspecified)
inactive: HL-60 > 100 µM | DLD-1 > 100 µM | 786-0 > 100 µM | NCI-H23 > 100 µM | HT-29 > 100 µM | SK-MEL-2 > 100 µM | SR > 100 µM | OVCAR-3 > 100 µM | UO-31 > 100 µM | SN12C > 100 µM | OVCAR-4 > 100 µM | HCC 2998 > 100 µM | EKVX > 100 µM | SK-MEL-28 > 100 µM | SF-268 > 100 µM | OVCAR-5 > 100 µM | NCI-H522 > 100 µM | SF-295 > 100 µM | KM12 > 100 µM | SF-539 > 100 µM | SNB-75 > 100 µM | HOP-62 > 100 µM | RXF 393 > 100 µM | RPMI-8226 > 100 µM | KM-20L2 > 100 µM | LOX IMVI > 100 µM | DMS-114 > 100 µM | DMS-273 > 100 µM | Malme-3M > 100 µM | CCRF-CEM > 100 µM | MOLT-4 > 100 µM | K562 > 100 µM | M19-MEL > 100 µM | RXF 631 > 100 µM | CAKI-1 > 100 µM | NCI-H226 > 100 µM | M14 > 100 µM | SNB-78 > 100 µM | A498 > 100 µM | SW-620 > 100 µM | ACHN > 100 µM | UACC-257 > 100 µM | IGROV-1 > 100 µM | TK-10 > 100 µM | SK-MEL-5 > 100 µM | SNB-19 > 100 µM | HOP-18 > 100 µM | A549 > 100 µM | COLO 205 > 100 µM | HCT-116 > 100 µM | LXFL 529 > 100 µM | OVCAR-8 > 100 µM | U-251 > 100 µM | UACC-62 > 100 µM | NCI-H460 > 100 µM
> 100 µM: HCT-15
